What was measured:
Details in all cases: 42 days
[1] = Shelf stability: content determined by UV spectroscopy in water at 262 nm; type: physicochemical; design: unit not given here
Experimental: (§1) Several samples in glass ampoules were kept without and over drying agents for 42 days in the dark at room temperature. The content of (5R,6R,1′R)-3-(4-amino-1,1-dimethylbutyl)-6-(1′-hydroxyethyl)-7-oxo-4-1-azabicyclo[3.2.0]hept-2-ene-2-carboxylic acid was determined by UV spectroscopy in water at λmax=262 nm (ε=5000) and by plate bioassay. The appearance of the lyophilized powder and the solubility behaviour in water were also recorded.

[2] = test system: Escherichia coli; experiment: Shelf stability: content by plate bioassay; type: cell-based; design: unit not given here
Experimental: as §1, with “Several samples in glass ampoules were kept without and over drying agents for 42 days in the dark at room temperature.” left out
The plate bioassays were carried out in sterile polystyrene dishes of 8.5 cm diameter with 10 ml of sterile Difco Nutrient Agar using Escherichia coli (inocculum ca. 10 000 cells). The inhibition diameters were compared with those obtained with 30, 25, 20, 15, 10 and 5 μg of pure title compound on a separate dish and the amount of active material calculated.

[3] = Shelf stability: appearance of the lyophilized powder; type: physicochemical
Experimental: as §1

[4] = R.T., vacuum, drying agent P2O5

- content by UV method ([1]; R.T., drying agent SiO2): 82
- content by UV method ([1]; R.T., drying agent none): 67
- content by UV method [1, 4]: 76
- content by UV method ([1]; −80° C., drying agent none): 100
- content by bioassay ([2]; R.T., drying agent SiO2): 66
- content by bioassay ([2]; R.T., drying agent none): 40
- content by bioassay [2, 4]: 83
- content by bioassay ([2]; −80° C., drying agent none): 100
- appearance ([3]; R.T., drying agent SiO2): yellow
- appearance ([3]; R.T., drying agent none): yellow
- appearance [3, 4]: yellow
- appearance ([3]; −80° C., drying agent none): white
SMILES: C[C@@H](O)[C@H]1C(=O)N2C(C(=O)O)=C(C(C)(C)CCCN)O[C@H]12 [neat, (5R,6R,1′R)-3-(4-amino-1,1-dimethylbutyl)-6-(1′-hydroxyethyl)-7-oxo-4-oxa-1-azabicyclo[3.2.0]hept-2-ene-2-carboxylic acid]
